Source: article doi:10.1101/2023.10.20.563248v1 (biorxiv, 2023)

Key:
Details in all cases: 1 µM; inhibitor
ACVR2B = ACVR2B (Homo sapiens, UniProt Q13705)
AKT3 = AKT3 (Homo sapiens, UniProt Q9Y243)
BMPR1A = BMPR1A (Homo sapiens, UniProt P36894)
BRK = BRK (Homo sapiens, UniProt Q13882)
CAMKK1 = CAMKK1 (Homo sapiens, UniProt Q8N5S9)
CDK13 = CDK13 (Homo sapiens, UniProt Q14004)
CDK2 = CDK2 (Homo sapiens, UniProt P24941)
CDK3 = CDK3 (Homo sapiens, UniProt Q00526)
CK1g3 = CK1g3 (Homo sapiens, UniProt Q9Y6M4)
CLK2 = CLK2 (Homo sapiens, UniProt P49760)
CSK = CSK (Homo sapiens, UniProt P41240)
DAPK1 = DAPK1 (Homo sapiens, UniProt P53355)
DYRK2 = DYRK2 (Homo sapiens, UniProt Q92630)
EPHA6 = EPHA6 (Homo sapiens, UniProt Q9UF33)
ERK1 = ERK1 (Homo sapiens, UniProt P27361)
FES = FES (Homo sapiens, UniProt P07332)
FGFR1 = FGFR1 (Homo sapiens, UniProt P11362)
FLT3 = FLT3 (Homo sapiens, UniProt P36888)
JAK2 = JAK2 (Homo sapiens, UniProt O60674)
JNK2 = JNK2 (Homo sapiens, UniProt P45984)
LIMK1 = LIMK1 (Homo sapiens, UniProt P53667)
MAP4K2 = MAP4K2 (Homo sapiens, UniProt Q12851)
MAPKAPK2 = MAPKAPK2 (Homo sapiens, UniProt P49137)
MST4 = MST4 (Homo sapiens, UniProt Q9P289)
NEK9 = NEK9 (Homo sapiens, UniProt Q8TD19)
PBK = PBK (Homo sapiens, UniProt Q96KB5)
PKN3 = PKN3 (Homo sapiens, UniProt Q6P5Z2)
PRKG2 = PRKG2 (Homo sapiens, UniProt Q13237)
RON = RON (Homo sapiens, UniProt Q04912)
STK25 = STK25 (Homo sapiens, UniProt O00506)
TIE2 = TIE2 (Homo sapiens, UniProt Q02763)

Chain of ACVR2B (Q13705 whole entry): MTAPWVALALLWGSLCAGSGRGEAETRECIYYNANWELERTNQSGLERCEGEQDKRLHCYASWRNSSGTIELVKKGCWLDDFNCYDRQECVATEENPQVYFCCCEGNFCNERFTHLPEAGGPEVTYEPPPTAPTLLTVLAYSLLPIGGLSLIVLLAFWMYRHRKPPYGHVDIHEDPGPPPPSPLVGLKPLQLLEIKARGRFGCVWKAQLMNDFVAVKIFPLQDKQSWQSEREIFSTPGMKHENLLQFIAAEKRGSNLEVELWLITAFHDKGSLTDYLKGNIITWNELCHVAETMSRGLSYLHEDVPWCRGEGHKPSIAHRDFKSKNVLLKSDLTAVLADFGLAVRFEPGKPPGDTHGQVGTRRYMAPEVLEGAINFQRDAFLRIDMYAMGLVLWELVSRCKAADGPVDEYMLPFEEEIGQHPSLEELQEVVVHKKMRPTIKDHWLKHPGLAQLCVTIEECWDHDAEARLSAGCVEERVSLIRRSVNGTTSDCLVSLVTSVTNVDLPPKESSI
Chain of NEK9 (Q8TD19 whole entry): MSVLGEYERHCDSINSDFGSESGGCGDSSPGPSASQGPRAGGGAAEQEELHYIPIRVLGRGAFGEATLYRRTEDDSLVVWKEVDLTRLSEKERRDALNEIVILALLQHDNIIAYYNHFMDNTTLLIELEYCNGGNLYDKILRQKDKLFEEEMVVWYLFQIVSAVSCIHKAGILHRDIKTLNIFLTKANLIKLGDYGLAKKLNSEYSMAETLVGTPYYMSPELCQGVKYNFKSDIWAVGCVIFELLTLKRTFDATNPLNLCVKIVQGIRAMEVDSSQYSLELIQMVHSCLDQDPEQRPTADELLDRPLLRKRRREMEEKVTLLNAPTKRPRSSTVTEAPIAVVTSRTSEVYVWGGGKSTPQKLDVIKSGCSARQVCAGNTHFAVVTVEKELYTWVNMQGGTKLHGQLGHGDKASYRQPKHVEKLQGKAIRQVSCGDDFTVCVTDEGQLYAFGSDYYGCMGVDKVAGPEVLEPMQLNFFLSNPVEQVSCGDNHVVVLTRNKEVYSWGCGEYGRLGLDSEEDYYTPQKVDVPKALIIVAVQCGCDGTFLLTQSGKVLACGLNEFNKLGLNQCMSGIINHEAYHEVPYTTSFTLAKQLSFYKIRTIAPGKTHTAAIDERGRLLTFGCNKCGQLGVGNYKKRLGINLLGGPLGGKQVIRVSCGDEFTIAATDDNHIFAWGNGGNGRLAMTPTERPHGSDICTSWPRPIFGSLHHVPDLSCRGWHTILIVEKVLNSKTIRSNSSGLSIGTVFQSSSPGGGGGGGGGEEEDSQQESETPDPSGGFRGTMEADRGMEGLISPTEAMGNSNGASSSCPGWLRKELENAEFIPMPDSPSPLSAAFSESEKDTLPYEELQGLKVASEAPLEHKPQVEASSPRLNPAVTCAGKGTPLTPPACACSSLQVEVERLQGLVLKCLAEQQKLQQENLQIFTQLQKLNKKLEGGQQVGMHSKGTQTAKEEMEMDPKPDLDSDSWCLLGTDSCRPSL
Chain of ERK1 (P27361 whole entry): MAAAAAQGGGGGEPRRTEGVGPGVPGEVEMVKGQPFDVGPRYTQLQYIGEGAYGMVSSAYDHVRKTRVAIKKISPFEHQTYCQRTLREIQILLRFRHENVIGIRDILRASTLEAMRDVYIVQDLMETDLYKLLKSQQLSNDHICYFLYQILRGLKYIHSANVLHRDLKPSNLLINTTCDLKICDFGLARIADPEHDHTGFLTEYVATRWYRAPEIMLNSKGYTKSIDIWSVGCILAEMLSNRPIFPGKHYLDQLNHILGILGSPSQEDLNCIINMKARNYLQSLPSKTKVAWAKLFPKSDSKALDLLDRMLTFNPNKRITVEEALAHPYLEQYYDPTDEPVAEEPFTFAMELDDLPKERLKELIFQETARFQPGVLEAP
Chain of STK25 (O00506 whole entry): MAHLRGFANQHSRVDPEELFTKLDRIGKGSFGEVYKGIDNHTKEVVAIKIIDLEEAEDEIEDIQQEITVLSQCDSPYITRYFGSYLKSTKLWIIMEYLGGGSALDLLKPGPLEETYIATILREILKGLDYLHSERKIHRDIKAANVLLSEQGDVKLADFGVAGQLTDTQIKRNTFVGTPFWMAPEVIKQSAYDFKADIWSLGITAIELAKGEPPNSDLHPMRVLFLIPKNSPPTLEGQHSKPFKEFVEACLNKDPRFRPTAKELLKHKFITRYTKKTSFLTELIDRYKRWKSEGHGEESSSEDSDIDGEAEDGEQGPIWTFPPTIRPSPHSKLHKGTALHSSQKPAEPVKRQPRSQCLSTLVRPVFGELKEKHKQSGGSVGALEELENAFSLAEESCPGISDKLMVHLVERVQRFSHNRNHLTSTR
Chain of BRK (Q13882 whole entry): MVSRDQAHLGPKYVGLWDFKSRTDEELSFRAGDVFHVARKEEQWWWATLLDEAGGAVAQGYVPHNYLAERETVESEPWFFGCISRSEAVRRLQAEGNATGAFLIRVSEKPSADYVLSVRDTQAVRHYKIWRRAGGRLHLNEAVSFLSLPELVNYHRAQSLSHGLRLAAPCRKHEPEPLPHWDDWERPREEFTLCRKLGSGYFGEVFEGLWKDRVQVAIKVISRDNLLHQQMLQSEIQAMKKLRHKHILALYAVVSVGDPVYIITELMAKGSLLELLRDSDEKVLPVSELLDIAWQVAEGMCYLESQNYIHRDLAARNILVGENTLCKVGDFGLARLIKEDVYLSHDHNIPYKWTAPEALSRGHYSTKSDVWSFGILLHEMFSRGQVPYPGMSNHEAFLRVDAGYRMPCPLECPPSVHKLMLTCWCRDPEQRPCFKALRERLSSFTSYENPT
Chain of PRKG2 (Q13237 whole entry): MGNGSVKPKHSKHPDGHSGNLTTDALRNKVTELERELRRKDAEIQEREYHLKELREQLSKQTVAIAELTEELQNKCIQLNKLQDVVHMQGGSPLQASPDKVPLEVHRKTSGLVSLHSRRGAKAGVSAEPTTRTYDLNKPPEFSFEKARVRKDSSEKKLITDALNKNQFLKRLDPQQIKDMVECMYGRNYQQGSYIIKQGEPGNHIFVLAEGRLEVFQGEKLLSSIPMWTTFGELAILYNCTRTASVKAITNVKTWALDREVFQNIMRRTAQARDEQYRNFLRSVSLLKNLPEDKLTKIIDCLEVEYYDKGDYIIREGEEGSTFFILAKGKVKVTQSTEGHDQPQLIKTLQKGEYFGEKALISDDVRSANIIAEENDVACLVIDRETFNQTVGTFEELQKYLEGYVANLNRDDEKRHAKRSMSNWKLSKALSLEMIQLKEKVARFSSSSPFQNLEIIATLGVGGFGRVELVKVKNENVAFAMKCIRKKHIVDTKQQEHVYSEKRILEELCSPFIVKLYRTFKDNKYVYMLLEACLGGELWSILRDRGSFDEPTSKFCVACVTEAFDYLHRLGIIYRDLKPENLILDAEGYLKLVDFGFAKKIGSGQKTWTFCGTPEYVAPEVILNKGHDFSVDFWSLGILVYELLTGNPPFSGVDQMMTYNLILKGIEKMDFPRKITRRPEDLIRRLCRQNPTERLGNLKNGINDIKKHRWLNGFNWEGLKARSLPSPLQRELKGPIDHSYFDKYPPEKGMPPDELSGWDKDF
Chain of CAMKK1 (Q8N5S9 whole entry): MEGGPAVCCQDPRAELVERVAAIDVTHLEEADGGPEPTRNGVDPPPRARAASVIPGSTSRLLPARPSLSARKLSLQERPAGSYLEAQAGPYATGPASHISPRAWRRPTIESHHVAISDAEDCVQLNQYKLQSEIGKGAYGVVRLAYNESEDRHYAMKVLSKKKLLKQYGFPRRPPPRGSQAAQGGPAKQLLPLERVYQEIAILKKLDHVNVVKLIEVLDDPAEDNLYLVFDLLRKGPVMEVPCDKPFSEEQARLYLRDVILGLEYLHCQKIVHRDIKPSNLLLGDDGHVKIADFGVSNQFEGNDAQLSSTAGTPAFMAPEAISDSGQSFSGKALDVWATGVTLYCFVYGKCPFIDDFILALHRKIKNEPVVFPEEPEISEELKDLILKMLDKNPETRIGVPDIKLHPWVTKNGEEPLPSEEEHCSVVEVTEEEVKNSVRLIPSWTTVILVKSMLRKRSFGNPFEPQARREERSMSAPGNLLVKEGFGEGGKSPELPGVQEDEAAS
Chain of FLT3 (P36888 whole entry): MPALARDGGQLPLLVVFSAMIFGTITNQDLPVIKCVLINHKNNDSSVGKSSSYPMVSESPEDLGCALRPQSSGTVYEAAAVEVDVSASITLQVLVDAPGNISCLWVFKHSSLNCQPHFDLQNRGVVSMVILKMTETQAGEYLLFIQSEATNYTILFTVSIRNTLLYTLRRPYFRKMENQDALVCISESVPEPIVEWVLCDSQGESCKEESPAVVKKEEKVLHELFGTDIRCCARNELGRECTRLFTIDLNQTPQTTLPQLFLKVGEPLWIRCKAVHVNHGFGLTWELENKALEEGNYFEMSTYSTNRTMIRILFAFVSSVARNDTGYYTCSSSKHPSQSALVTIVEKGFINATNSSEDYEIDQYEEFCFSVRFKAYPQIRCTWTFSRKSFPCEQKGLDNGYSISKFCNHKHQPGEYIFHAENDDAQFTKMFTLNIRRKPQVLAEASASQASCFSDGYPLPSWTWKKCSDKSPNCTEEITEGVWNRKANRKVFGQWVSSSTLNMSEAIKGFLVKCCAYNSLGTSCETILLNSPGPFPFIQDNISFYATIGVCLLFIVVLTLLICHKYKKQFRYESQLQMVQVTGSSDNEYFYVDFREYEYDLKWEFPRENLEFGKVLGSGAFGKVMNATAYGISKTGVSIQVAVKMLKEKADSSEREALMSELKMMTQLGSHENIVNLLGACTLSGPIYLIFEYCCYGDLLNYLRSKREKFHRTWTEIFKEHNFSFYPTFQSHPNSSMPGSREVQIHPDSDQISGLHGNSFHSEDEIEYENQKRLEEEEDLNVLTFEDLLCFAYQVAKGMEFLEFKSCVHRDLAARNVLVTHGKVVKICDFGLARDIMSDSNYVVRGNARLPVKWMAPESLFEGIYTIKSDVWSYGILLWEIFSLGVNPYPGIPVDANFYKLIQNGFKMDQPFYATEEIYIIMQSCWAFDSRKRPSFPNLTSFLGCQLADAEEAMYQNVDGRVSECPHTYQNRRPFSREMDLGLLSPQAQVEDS

What does the source list for O=C1NCCCCCNc2nc(c3ccccc3n2)Nc2cc1[nH]n2 [21c, (Z)-3^1H-2,5,11-triaza-1(4,2)-quinazolina-3(3,5)-pyrazolacycloundecaphan-4-one]?
21c Remaining activity, percent of control [%] (ACVR2B): 100.5%; 21c Remaining activity, percent of control [%] (AKT3): 102.5%; 21c Remaining activity, percent of control [%] (BMPR1A): 108.3%; 21c Remaining activity, percent of control [%] (BRK): 99.3%; 21c Remaining activity, percent of control [%] (CAMKK1): 94.6%; 21c Remaining activity, percent of control [%] (CDK13): 101.2%; 21c Remaining activity, percent of control [%] (CDK2): 103.0%; 21c Remaining activity, percent of control [%] (CDK3): 95.9%; 21c Remaining activity, percent of control [%] (CK1g3): 100.8%; 21c Remaining activity, percent of control [%] (CLK2): 64.6%; 21c Remaining activity, percent of control [%] (CSK): 73.5%; 21c Remaining activity, percent of control [%] (DAPK1): 94.0%; 21c Remaining activity, percent of control [%] (DYRK2): 91.4%; 21c Remaining activity, percent of control [%] (EPHA6): 97.4%; 21c Remaining activity, percent of control [%] (ERK1): 85.8%; 21c Remaining activity, percent of control [%] (FES): 100.7%; 21c Remaining activity, percent of control [%] (FGFR1): 80.9%; 21c Remaining activity, percent of control [%] (FLT3): 103.4%; 21c Remaining activity, percent of control [%] (JAK2): 96.2%; 21c Remaining activity, percent of control [%] (JNK2): 84.0%; 21c Remaining activity, percent of control [%] (LIMK1): 36.6%; 21c Remaining activity, percent of control [%] (MAP4K2): 112.8%; 21c Remaining activity, percent of control [%] (MAPKAPK2): 106.1%; 21c Remaining activity, percent of control [%] (MST4): 18.0%; 21c Remaining activity, percent of control [%] (NEK9): 109.8%; 21c Remaining activity, percent of control [%] (PBK): 98.8%; 21c Remaining activity, percent of control [%] (PKN3): 92.6%; 21c Remaining activity, percent of control [%] (PRKG2): 93.5%; 21c Remaining activity, percent of control [%] (RON): 94.5%; 21c Remaining activity, percent of control [%] (STK25): 57.2%; 21c Remaining activity, percent of control [%] (TIE2): 116.9%
